Common to all, as to assay: inhibition of tumour cell growth, NCI panel, 48 h
The subject of test [1] is PC-3 prostate.
Test [2] has as its system KM12 colon.
The subject of test [3] is SNB-19 CNS.
Test [4] concerns HOP-62 NSCLC.
Test [5] concerns SK-MEL-2 melanoma.
Test [6] has as its system TK-10 renal.
The subject of test [7] is UACC-62 melanoma.
Test [8] concerns OVCAR-5 ovarian.
The subject of test [9] is OVCAR-8 ovarian.

Here are results for 30 compounds from PubChem BioAssay (NCI).

The structures appear in SMILES notation.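 Assay format: 96-well plates, 48-hour exposure. GI50 marks 50% less growth. TGI marks complete inhibition of growth.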

For `COc1nc(C)cc2c(=O)n(-c3ccccc3)n(CCCN3CCN(c4ccc(Cl)cc4)CC3)c(=O)c12`, the GI50 in test [1] was 15.3 µM; in [2], > 50 µM; in [3], 18.8 µM; in [4] it was 24.5 µM; in [5] it was > 50 µM; in test [6], > 50 µM. For the same compound, the GI50 in test [7] is 39.9 µM; in test [8], > 50 µM. Besides, the TGI in [1], in test [2], in test [3], in test [4], in [5] and in test [6] was > 50 µM in each case. Further, the TGI in [7] and in test [8] was > 50 µM each time.

As to `COC(=O)c1ccc(N=NN(C)CO)cc1`, the TGI in test [9], in test [2], in test [3], in test [4], in [5] and in [6] was > 100 µM each time. In addition, the TGI in [7] and in [8] was > 100 µM each time.

For `O=C1C(=O)N(c2ccc(Cl)c(Cl)c2)C(=O)C(=O)C1c1nc2ccccc2o1`, the TGI in test [9], in test [2], in [3], in [4], in test [5] and in [6] was > 100 µM in each case. Also, the TGI in [7] and in test [8] was > 100 µM each time.

For `COc1ccc2ccc([Se]c3ccc4ccc(OC)cc4c3)cc2c1`, the TGI in test [9] was 98.2 µM; in [2], > 100 µM; in test [3] it was 68.8 µM; in test [4] it was > 100 µM; in test [5], > 100 µM; in test [6], > 100 µM. Moreover, the TGI in test [7] was > 100 µM.

For `CCOC(=O)CC1=CSC2=NCCN12`, the TGI in test [9], in [2], in test [3], in [4], in test [5] and in test [6] was > 100 µM each time. Besides, the TGI in test [7] and in test [8] was > 100 µM in each case.

As to `O=C(O)C12C3CCCC1C2CC3` (stereo not drawn), the TGI in test [9], in [2], in test [3], in test [4], in test [5] and in test [6] was > 100 µM each time. For the same compound, the TGI in test [7] and in test [8] was > 100 µM throughout.

Turning to `CC1NOC(=O)C1N=Nc1ccccc1Cl` (stereo not drawn), the TGI in test [9], in test [2], in test [3], in [4], in [5] and in test [6] was > 100 µM each time. Further, the TGI in [7] and in [8] was > 100 µM in each case.

Consider `C=C1CC[C@@H]2C(C)(C)CCC[C@@]2(C)[C@@H]1Cc1cc(O)ccc1O`, for which the TGI in [9] was 15.1 µM; in test [2], 19.2 µM; in [3], 21.9 µM; in [4], 25.8 µM; in test [5], 6.39 µM; in test [6], 8.77 µM. Besides, the results for the TGI in test [7] and in test [8] were 22.8 µM and 31.3 µM, respectively.

With `CS(=O)c1ccc(COP(N)(=O)N(CCCl)CCCl)cc1` (stereo not drawn), the TGI in [9], in test [2], in [3], in [4], in test [5] and in test [6] was > 100 µM each time. In addition, the TGI in test [7] and in [8] was > 100 µM throughout.

Regarding `c1ccc(N=C2c3ccccc3C3=NCCCN32)cc1`, the TGI in test [9], in [2], in test [3], in test [4], in test [5] and in test [6] was > 100 µM in each case. In addition, the TGI in test [7] and in [8] was > 100 µM throughout.

Regarding `O=[N+]([O-])C1C2C=CC(C2)[C@H]1c1ccccc1Cl` (stereo partly drawn), the TGI in [9] is > 100 µM; in test [2] it was > 100 µM; in test [3], > 100 µM; in [4], > 10 µM; in test [5] it was > 100 µM; in test [6], > 100 µM. Also, the TGI was > 31.6 µM in test [7] and > 88.2 µM in test [8].

With `CCOC(=O)c1ccc(N2C(=O)/C(=C\OC)c3ccccc3C2=O)cc1`, the TGI in test [9], in [2], in [3], in [5], in test [6] and in [7] was > 100 µM in each case. For the same compound, in [8], the TGI is > 100 µM.

Turning to `CN(c1ccccc1)C(c1ccccc1)C(O)c1ccccc1` (stereo not drawn), the TGI amounted to 36 µM in [9]; 34.4 µM in test [2]; 36.4 µM in test [3]; 38 µM in test [4]; 31.8 µM in [5]; 57.1 µM in [6]. Besides, the TGI in test [7] came out at 38.1 µM; in test [8], 37.3 µM.

Consider `C=C(CN1CCc2ccccc2C1)c1ccc(C(=O)Nc2ccc(N)cc2)cc1`, for which the GI50 in test [1] is 3.08 µM; in test [9] it was 22.6 µM; in test [2] it was 20.4 µM; in test [3], 28.3 µM; in [4], 28.5 µM; in test [5], 24.4 µM. The results for the GI50 in [6], in [7] and in [8] were 26.3 µM, 22.1 µM and 29.9 µM, respectively. The TGI was 48 µM in [1]; 77.7 µM in [9]; 48.4 µM in test [2]; > 100 µM in test [3]; > 100 µM in test [4]; > 100 µM in test [5]. Besides, the TGI in test [6], in [7] and in [8] was > 100 µM each time.

With `CC(C(=O)Oc1ccc2ccccc2c1-c1c(O)ccc2ccccc12)c1ccccc1` (stereo not drawn), the TGI in [9] was 50.2 µM; in [2], 26.1 µM; in test [3], 28.4 µM; in test [4], 29.8 µM; in [5], 29.7 µM; in [6], 32.8 µM. For the same compound, the figures for the TGI in test [7] and in test [8] were 27 µM and 31 µM, respectively.

Turning to `ON=C1CCC(c2ccccc2)CC1` (stereo not drawn), the TGI in [9], in test [2], in test [3], in test [4], in test [5] and in test [6] was > 100 µM throughout. In addition, the TGI in test [7] and in [8] was > 100 µM each time.

Take `CCOC(=O)C(=O)Nc1c(N(CC)CC)n2ccccc2nc1=O`: the TGI in [9], in test [2], in test [3], in [4], in test [5] and in test [7] was > 100 µM in each case. The TGI in test [8] was > 100 µM.

`COc1ccc(/C=C2/C[N+](C)(C)C/C(=C/c3ccc(OC)cc3)C2=O)cc1`: the TGI in test [9] is > 100 µM; in [2], 36.3 µM; in test [3], > 100 µM; in test [4], > 100 µM; in test [5] it was 71.7 µM; in [6], > 100 µM. The values for the TGI in [7] and in test [8] were 47.5 µM and > 100 µM, respectively.

`COC(=O)C(Nc1ccc(OC)cc1)c1ccccc1` (stereo not drawn): the TGI in [1], in test [9], in [2], in [3], in [4] and in [5] was > 100 µM in each case. Also, the TGI in [6], in test [7] and in test [8] was > 100 µM in each case.

As to `O=S1(=O)C[C@@H](O)[C@H](O)CS1`, the TGI in test [9], in test [2], in test [3], in test [4], in [6] and in test [7] was > 100 µM each time. In [8], the TGI was > 100 µM.

For the compound `O=C(O)c1cc2c(cn1)[nH]c1ccccc12`, the TGI in [9], in test [2], in test [3], in test [4], in test [6] and in [7] was > 100 µM each time. Besides, the TGI in test [8] is > 100 µM.

Take `C/C=C(\C)C(=O)O[C@H]1C=CC(=O)O[C@H]1CNC(=O)[C@H](C)O`: the GI50 in test [1] was 24.5 µM; in [9], 24.3 µM; in test [2], 17 µM; in test [3] it was 30.5 µM; in test [4], 23.9 µM; in test [5] it was 20.1 µM. In addition, the GI50 in test [6] was 17.2 µM; in [7] it was 16.1 µM; in test [8], 19.9 µM. The TGI in test [1] is 79.4 µM; in test [9], 65.9 µM; in test [2] it was 32 µM; in test [3], > 100 µM; in test [4], 54 µM; in [5] it was 51 µM. Also, the TGI is 31.8 µM in test [6], 30.5 µM in [7] and 38.3 µM in [8].

`COC(=O)c1nc(NC#N)[nH]c(=O)c1C`: the TGI in [9], in test [2], in test [3], in [4], in [5] and in test [6] was > 100 µM in each case. Moreover, the TGI in test [7] and in test [8] was > 100 µM each time.

As for `O=C(c1ccccc1)c1c(C(=O)c2ccccc2)c(-c2ccccc2)c2c(-c3ccccc3)sc(-c3ccccc3)c2c1-c1ccccc1`, the TGI in [9], in test [2], in test [3], in [4], in [6] and in test [7] was > 100 µM each time. In addition, in [8], the TGI was > 100 µM.

For `Nc1c(-c2nc3ccccc3[nH]2)sc(=S)n1-c1ccccc1`, the TGI in [9] is > 100 µM; in [2], > 100 µM; in [3], > 100 µM; in test [4] it was > 100 µM; in test [5] it was > 100 µM; in test [7], 70 µM. In addition, the TGI in test [8] is > 100 µM.

`CCOC(=O)C(C)c1cc(C2(C)OCCO2)c(C)o1` (stereo not drawn): the TGI in test [9], in [2], in test [3], in [4], in [5] and in [6] was > 100 µM each time. Moreover, the TGI in test [7] and in test [8] was > 100 µM throughout.

For the compound `O=C(Nc1ccc(Cl)cc1)c1cc2ccccc2cc1O`, the GI50 was 2.99 µM in test [1]; 3.67 µM in test [9]; 2.81 µM in test [2]; 4.19 µM in test [3]; 3.34 µM in test [4]; 2.87 µM in test [5]. Further, the GI50 in test [6] is 3.93 µM; in test [7], 0.899 µM; in test [8], 4.07 µM. The TGI is > 100 µM in [1]; > 100 µM in test [9]; > 100 µM in [2]; > 100 µM in test [3]; > 100 µM in test [4]; 13.1 µM in [5]. Further, the TGI in test [6], in [7] and in test [8] was > 100 µM each time.

Consider `Cc1c2cc[nH]c(=O)c2cc2c(=O)c3cnccc3[nH]c12`, for which the TGI in [9], in test [2], in [3], in test [4], in test [5] and in test [6] was > 100 µM in each case. Also, the TGI in [7] and in [8] was > 100 µM throughout.

Regarding `N.N.NC(CS)C(=O)[O-].NC(CS)C(=O)[O-].[Pt+4]` (stereo not drawn), the GI50 in test [9], in test [2], in test [3], in [5], in test [6] and in test [7] was > 50 µM throughout. For the same compound, the GI50 in test [8] is > 50 µM. Moreover, the TGI in test [9], in [2], in test [3], in test [5], in test [6] and in test [7] was > 50 µM throughout. Moreover, in test [8], the TGI is > 50 µM.

Regarding `O=C1OC2(c3ccccc3Oc3ccccc32)c2ccccc21`, the TGI in test [9], in [2], in [3], in test [4], in test [5] and in [6] was > 100 µM throughout. Further, the TGI in test [7] and in test [8] was > 100 µM throughout.
